Assay results published in patent US9212168B2 (priority 2011, dated 2015).

Assays:
HCV genotype 1b replicon = HCV genotype 1b replicon assay (Renilla luciferase readout); assay type: cell-based, hepatitis C virus; conditions: for Genotype 1b: HCV genotype 1b replicon; for EC50: Hepatitis C virus, read-out: Genotype 1b
Outline: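 Huh7-derived APC144 subgenomic replicon cells carrying Renilla luciferase–NS3-NS5B, seeded 10,000/well without G418, then treated with compound dose-responses for 48 h at 37 °C (0.5% DMSO final). Luciferase signal fitted by 4-parameter model to EC50, reported as pEC50.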

HCV genotype 1a replicon = HCV genotype 1a replicon assay (NS3 protease activity readout); assay type: cell-based, hepatitis C virus; conditions: for Genotype 1a: HCV genotype 1a replicon; for EC50: Hepatitis C virus, read-out: Genotype 1a, HCV genotype 1a replicon
Outline: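 Genotype 1a subgenomic replicon cells (APC89, Huh7.5) were treated with compound dose-responses in G418-free medium, 0.5% DMSO final, for 48 or 72 hours at 37° C. Lysate NS3/4a protease activity measured with 15 μM FRET substrate, 20 min at 37° C (ex 340/em 509 nm); EC50 by 4-parameter fit.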

Compound	Genotype 1b (HCV genotype 1b replicon)	Genotype 1a (HCV genotype 1a replicon)	EC50 (HCV genotype 1b replicon)	EC50 (HCV genotype 1a replicon)
COC(=O)NC(C(=O)N1CC(C)CC1c1nc(-c2ccc(-c3ccc(NC(=O)c4ccc(N5CCN(C(=O)C(C)(C)CO)CC5C)nc4)cc3OC(F)(F)F)cc2)c[nH]1)C(C)C (stereo not shown) [Example 13-29]	D (D represents pEC50>10 (EC50<0.1 nM))	D (D represents pEC50>10 (EC50<0.1 nM))		
COC(=O)NC(C(=O)N1CC(C)CC1c1nc(-c2ccc(-c3cc(Cl)c(NC(=O)c4ccc(N5CCN(C(=O)C(C)(C)C)CC5C)nc4)cc3C(F)(F)F)cc2)c[nH]1)C1CC(C)OC(C)C1 (stereo not shown) [Example 19-9]	D (D represents pEC50>10 (EC50<0.1 nM))	D (D represents pEC50>10 (EC50<0.1 nM))		
COC(=O)N[C@H](C(=O)N1C[C@@H](C)C[C@H]1c1nc(-c2ccc(-c3ccc(C(=O)Nc4ccc(N5CCN(C(=O)[C@]6(C)CCCN6C(=O)[C@@H](NC(=O)OC)C(C)C)C[C@H]5C)nc4)cc3)cc2)c[nH]1)C(C)C [Example 4-2]	D (D represents pEC50>10 (EC50<0.1 nM))	D (D represents pEC50>10 (EC50<0.1 nM))		
COC(=O)NC(C(=O)N1CC(C)CC1c1nc(-c2ccc(-c3cc(Cl)c(NC(=O)c4ccc(N5CCN(C(=O)C6CC6(F)F)CC5C)nc4)cc3C(F)(F)F)cc2)c[nH]1)C(C)C (mixture of isomers) [Example 1-55]	D (D represents pEC50>10 (EC50<0.1 nM))	D (D represents pEC50>10 (EC50<0.1 nM))		
COC(=O)N[C@H](C(=O)N1C[C@@H](C)C[C@H]1c1nc(-c2ccc(-c3ccc(C(=O)Nc4ccc(N5C[C@H](C)N(C(=O)[C@H]6CCCN6C(=O)C6CC6)C[C@H]5C)nc4)cc3OC(F)(F)F)cc2)c[nH]1)C(C)C [Example 4-18]	D (D represents pEC50>10 (EC50<0.1 nM))	D (D represents pEC50>10 (EC50<0.1 nM))		
COC(=O)N[C@H](C(=O)N1C[C@@H](C)C[C@H]1c1nc(-c2ccc(-c3cc(Cl)c(NC(=O)c4ccc(N5CCN(C(=O)C(C)(C)CO)C[C@H]5C)nc4)cc3OC(F)(F)F)cc2)c(CO)[nH]1)C1CCOCC1 [Example 20-3]	D (D represents pEC50>10 (EC50<0.1 nM))	D (D represents pEC50>10 (EC50<0.1 nM))		
COC(=O)N[C@H](C(=O)N1C[C@@H](C)C[C@H]1c1nc(-c2ccc(-c3cc(F)c(NC(=O)c4ccc(N5CCN(C(=O)C(C)(C)C)C[C@H]5C)nc4)cc3F)cc2)c[nH]1)C(C)C [Example 1-82]	D (D represents pEC50>10 (EC50<0.1 nM))	C (C represents pEC50 between and 9 and about 10, (EC50 between 1 nM and 0.1 nM))		
COC(=O)N[C@H](C(=O)N1C[C@@H](C)C[C@H]1c1nc(-c2ccc(-c3ccc(C(=O)Nc4ccc(N5CCN(C(=O)[C@H]6CC6(C)C)C[C@H]5C)nc4)cc3)cc2)c(Cl)[nH]1)C1CCOCC1 [Example 22-11]	D (D represents pEC50>10 (EC50<0.1 nM))	D (D represents pEC50>10 (EC50<0.1 nM))		
COC(=O)N[C@H](C(=O)N1C[C@@H](C)C[C@H]1c1nc(-c2ccc(-c3ccc(C(=O)Nc4ccc(N5CCN(C(=O)C(C)(C)C)C[C@H]5C)nc4)cc3OC(F)(F)F)cc2)c(F)[nH]1)C(C)C [Example 4-42]	D (D represents pEC50>10 (EC50<0.1 nM))	D (D represents pEC50>10 (EC50<0.1 nM))		
COC[C@H]1C[C@@H](c2nc(-c3ccc(-c4cc(Cl)c(C(=O)Nc5ccc(N6CCN(C(=O)C(C)(C)C)C[C@H]6C)nc5)cc4OC(F)(F)F)cc3)c[nH]2)N(C(=O)[C@@H](NC(=O)OC)C2CCOCC2)C1 [24-6]	D (D represents pEC50>10 (EC50<0.1 nM))	D (D represents pEC50>10 (EC50<0.1 nM))		
COC(=O)N[C@H](C(=O)N1C[C@@H](C)C[C@H]1c1nc(-c2ccc(-c3cc(F)c(NC(=O)c4ccc(N5CCN(C(=O)C6CC6)C[C@H]5C)nc4)cc3OC(F)(F)F)cc2)c[nH]1)C(C)C [Example 1-3]	D (D represents pEC50>10 (EC50<0.1 nM))	D (D represents pEC50>10 (EC50<0.1 nM))		
CNC(=O)N1C[C@@H](C)N(c2ccc(C(=O)Nc3cc(C(F)(F)F)c(-c4ccc(-c5c[nH]c([C@@H]6C[C@H](C)CN6C(=O)[C@@H](NC(=O)OC)C(C)C)n5)cc4)cc3Cl)cn2)C[C@@H]1C [Example 1-12]	D (D represents pEC50>10 (EC50<0.1 nM))	D (D represents pEC50>10 (EC50<0.1 nM))		
COC(=O)N[C@H](C(=O)N1C[C@@H](C)C[C@H]1c1nc(-c2ccc(-c3cc(Cl)c(NC(=O)c4ccc(N5CCN(C(=O)C(C)(C)C)C[C@H]5C)nc4)cc3C(F)(F)F)cc2)c[nH]1)C(C)C [Example 1-61]	D (D represents pEC50>10 (EC50<0.1 nM))	D (D represents pEC50>10 (EC50<0.1 nM))		
COC(=O)N[C@H](C(=O)N1C[C@@H](C)C[C@H]1c1nc(-c2ccc(-c3ccc(C(=O)Nc4ccc(N5CCN(C(=O)C(C)(C)C)C[C@H]5C)nc4)cc3)cc2)c(Cl)[nH]1)C1CCOCC1 [Example 22-10]	D (D represents pEC50>10 (EC50<0.1 nM))	D (D represents pEC50>10 (EC50<0.1 nM))		
CNC(=O)N1CCN(c2ccc(C(=O)Nc3cc(C(F)(F)F)c(-c4ccc(-c5c[nH]c([C@@H]6C[C@H](C)CN6C(=O)[C@@H](NC(=O)OC)C(C)C)n5)cc4)cc3F)cn2)[C@H](C)C1 [Example 1-9]	D (D represents pEC50>10 (EC50<0.1 nM))	D (D represents pEC50>10 (EC50<0.1 nM))		
COC(=O)N[C@H](C(=O)N1C[C@@H](C)C[C@H]1c1nc(-c2ccc(-c3cc(F)c(NC(=O)c4ccc(N5C[C@H](C)N(C(=O)[C@H]6CC6(C)C)C[C@H]5C)nc4)cc3C(F)(F)F)cc2)c[nH]1)C(C)C [Example 1-7]	D (D represents pEC50>10 (EC50<0.1 nM))	D (D represents pEC50>10 (EC50<0.1 nM))		
COC(=O)N[C@H](C(=O)N1C[C@@H](C)C[C@H]1c1nc(-c2ccc(-c3cc(Cl)c(C(=O)Nc4ccc(N5CCN(C(=O)C(C)(C)C)C[C@H]5C)nc4)cc3OC(F)(F)F)cc2)c(Cl)[nH]1)C1CCOCC1 [Example 22-7]			< 0.1 nM	< 0.1 nM
COC(=O)NC(C(=O)N1CC(OC)CC1c1nc(-c2ccc(-c3cc(Cl)c(NC(=O)c4ccc(N5CCN(C(=O)C(C)(C)C)CC5C)nc4)cc3OC(F)(F)F)cc2)c[nH]1)C(C)OC (stereo not shown) [Example 16-3]	D (D represents pEC50>10 (EC50<0.1 nM))	D (D represents pEC50>10 (EC50<0.1 nM))		
COC(=O)N[C@H](C(=O)N1C[C@@H](OC)C[C@H]1c1nc(-c2ccc(-c3cc(Cl)c(NC(=O)c4ccc(N5CCN(C(=O)[C@]67C[C@H]6CCN7)C[C@H]5C)nc4)cc3OC(F)(F)F)cc2)c[nH]1)C(C)C [Example 27-5]	D (D represents pEC50>10 (EC50<0.1 nM))	D (D represents pEC50>10 (EC50<0.1 nM))		
COCC(=O)N1CCC[C@@]1(C)C(=O)N1CCN(c2ccc(NC(=O)c3ccc(-c4ccc(-c5c[nH]c([C@@H]6C[C@H](SC)CN6C(=O)[C@@H](NC(=O)OC)C(C)C)n5)cc4)c(OC(F)(F)F)c3)cn2)[C@H](C)C1 [Example 6-10]			< 0.1 nM	< 0.1 nM
